Reference: EP1076558B1, “2-PHENYL-1-[-(2-AMINOETHOXY)-BENZYL -INDOLE IN COMBINATION WITH ESTROGENS” (Wyeth, priority 1998, dated 1999)
Counter-ions that a name gives are not always drawn. Like-named read-outs stand apart in the source and are kept apart here.

What was measured:
Ishikawa cells = experiment: Ishikawa Cell Alkaline Phosphatase Assay; assay type: cell-based, human; settings: estrogenic activity by the alkaline phosphatase method, reference standards, read-out: ED50 values (95% C.I.)
Description: Cells were treated for 48 h prior to assay. […] Sample population for at each dose was n=8. […] Plates are placed at -80°C for a minimum of 15 minutes. Plates are thawed at 37°C followed by the addition of 150μL of 0.1 M Tris-HCl, pH 9.8, containing 4 mM para-nitrophenylphosphate (pNPP) to each well (final concentration. 3 mM pNPP). Absorbance and slope calculations were made using the […] Application program (Bio-Tek Instruments, Inc., Winooski, VT). […] Various compounds were assayed for estrogenic activity by the alkaline phosphatase method and corresponding ED50 values (95% C.I.) were calculated. The four listed in the following were used as as reference standards: A description of these methods is described by Holinka, […]., Kuramoto, H. and Gurpide, E. (1986) Effects of steroid hormones and antisteroids on alkaline phosphatase activity in human endometrial cancer cells (Ishikawa Line). Cancer Research, 46:2771-2774, and by […]. and […] simple and sensitive microtiter plate estrogen bioassay based on stimulation alkaline phosphatase in Ishikawa cells; […] Endocrinology, 6:2757-2762.

estrogen receptor = target: T1, estrogen receptor (Homo sapiens, UniProt P03372); experiment: In vitro estrogen receptor binding assay
T1 construct: expressed in transfected cells; host or cells: CHO cells (ribosome-free cytosol)
T1 sequence (P03372 1-595): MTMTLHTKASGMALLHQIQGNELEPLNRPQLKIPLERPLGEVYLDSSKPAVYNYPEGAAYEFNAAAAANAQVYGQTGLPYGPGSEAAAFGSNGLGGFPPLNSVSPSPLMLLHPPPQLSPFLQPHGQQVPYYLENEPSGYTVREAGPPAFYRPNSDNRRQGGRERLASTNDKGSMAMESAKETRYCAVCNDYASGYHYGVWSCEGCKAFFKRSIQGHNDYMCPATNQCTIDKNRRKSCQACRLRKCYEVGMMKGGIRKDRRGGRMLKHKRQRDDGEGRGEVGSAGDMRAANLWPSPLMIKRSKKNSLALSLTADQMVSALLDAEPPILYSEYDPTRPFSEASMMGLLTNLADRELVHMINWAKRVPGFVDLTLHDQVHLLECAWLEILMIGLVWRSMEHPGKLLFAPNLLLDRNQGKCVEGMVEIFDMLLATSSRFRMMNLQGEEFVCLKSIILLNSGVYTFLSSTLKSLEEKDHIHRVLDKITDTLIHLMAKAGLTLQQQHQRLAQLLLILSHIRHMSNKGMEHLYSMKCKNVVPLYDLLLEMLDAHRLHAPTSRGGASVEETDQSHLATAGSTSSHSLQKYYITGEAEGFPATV
Description: CHO cells overexpressing the estrogen receptor were grown in 150 mm^2 dishes in DMEM + 10% dextran coated charcoal, stripped fetal bovine serum. The plates were washed twice with PBS and once with 10mM Tris-HCl, pH 7.4, 1mM EDTA. Cells were harvested by scraping the surface and then the cell suspension was placed on ice. Cells were disrupted with a hand-held motorized tissue grinder using two, 10-second bursts. […] The cytosol was then frozen and stored at -80°C. Protein concentration of the cytosol was estimated using the BCA assay with reference standard protein.
100uG/100uL of the receptor preparation was aliquoted per well. […] The plate was incubated at room temperature for 2.5 h. […] 200 uL of the supernatant solution was then removed for scintillation counting. Samples were counted to 2% or 10 minutes, whichever occurs first. […] Also, wells containing radioactivity but no cytosol were processed with charcoal to estimate unremovable DPM of [^3H]
Counts per minute (CPM) of radioactivity were automatically converted to disintegrated per minute (DPM) by the Beckman LS 7500 Scintillation Counter using a set of quenched standards to generate a H No. for each sample.
For the generation of IC50 curves, % binding is plotted vs compound. […] For a description of these methods, see Hulme, E.C., ed. […] Receptor-Ligand Interactions: A Practical Approach. IRL Press, New York.(see especially chapter 8).

[1] = read-out: Receptor Binding IC50's
[2] = competition with [3H]17β-estradiol, cytosol of CHO cells overexpressing the estrogen receptor, read-out: Receptor Binding IC50's

C[C@]12CC[C@@H]3c4ccc(O)cc4CC[C@H]3[C@@H]1CCC2=O [estrone]
EC50 (Ishikawa cells; Homo sapiens, Ishikawa): 0.36 nM

Cc1c(-c2ccccc2)n(Cc2ccc(OCCN3CCCCC3)cc2)c2ccc(O)cc12 [Example No. 87, 3-Methyl-2-phenyl-1-[4-(2-piperidine-1-yl-ethoxy)-benzyl]-1H-indol-5-ol]
IC50 (estrogen receptor; [1]): 30 nM

C[C@]12CC[C@@H]3c4ccc(O)cc4CC[C@H]3[C@@H]1CC[C@H]2O [17α-estradiol]
EC50 (Ishikawa cells): 1.42 nM

Cc1c(-c2ccc(O)cc2)n(Cc2ccc(OCCN3CCCC(C)(C)C3)cc2)c2ccc(O)cc12 [Example No. 111, 1-{4-[2-(3,3-Dimethyl-piperidin-1-yl)-ethoxy]-benzyl}-2-(4-hydroxy-phenyl)-3-methyl-1H-indol-5-ol]
IC50 (estrogen receptor; [1]): 150 nM

Cc1c(-c2ccc(O)cc2)n(Cc2ccc(OCCN3CCCCC3)cc2)c2ccccc12 [Example No. 86, 4-{3-Methyl-1-[4-(2-piperidin-1-yl-ethoxy)-benzyl]-1H-indol-2-yl}-phenol hydrochloride]
IC50 (estrogen receptor; [1]): 120 nM

Cc1c(-c2ccc(O)cc2)n(Cc2ccc(OCCN3CCCCC3C)cc2)c2ccc(O)cc12 (centres unmarked) [Example No. 108, 2-(4-Hydroxy-phenyl)-3-methyl-1-{4-[2-(2-methyl-piperidin-1-yl)-ethoxy]-benzyl}-1H-indol-5-ol]
IC50 (estrogen receptor; [1]): 20 nM

CCOc1ccc(-c2c(C)c3cc(O)ccc3n2Cc2ccc(OCCN3CCCCC3)cc2)cc1 [Example No. 92, 2-(4-Ethoxv-phenyl)-3-methyl-1-[4-(2-piperidin-1-yl-ethoxy)-benzyl]-1H-indol-5-ol]
IC50 (estrogen receptor; [1]): 62 nM

Cc1c(-c2ccc(O)cc2)n(Cc2ccc(OCCN3C[C@@H]4CC[C@H]3C4)cc2)c2ccc(O)cc12 [Example No. 114, (1S,4R)-1-{4-[2-(2-Aza-bicyclo [2.2.1]hept-2-yl)-ethoxy]-benzyl}-2-(4-hydroxy-phenyl)-3-methyl-1H-indol-5-ol]
IC50 (estrogen receptor; [1]): 1 nM

COc1ccc2c(c1)c(C)c(-c1ccc(O)cc1)n2Cc1ccc(OCCN2CCCCC2)cc1 [Example No. 88, 4-{5-Methoxy-3-methyl-1-{4-[2-(piperidin-1-yl)-ethoxy]-benzyl}-1H-indol-2-yl}-phenol]
IC50 (estrogen receptor; [1]): 350 nM

CCOc1ccc(-c2c(C)c3cc(O)ccc3n2Cc2ccc(OCCN3CCCCCC3)cc2)cc1 [Example No. 93, 1-[4-(2-Azepan-1-yl-ethoxy)-benzyl]-2-(4-ethoxy-phenyl)-3-methyl-1H-indol-5-ol]
IC50 (estrogen receptor; [1]): 90 nM

CCCN(CCC)CCOc1ccc(Cn2c(-c3ccc(O)cc3)c(C)c3cc(O)ccc32)cc1 [Example No. 102, 1-[4-(2-Dipropylamino-ethoxy)-benzyl]-2-(4-hydroxy-phenyl)-3-methyl-1H-indol-5-ol]
IC50 (estrogen receptor; [1]): 80 nM

CCCCN(CCCC)CCOc1ccc(Cn2c(-c3ccc(O)cc3)c(C)c3cc(O)ccc32)cc1 [Example No. 103, 1-[4-(2-Dibutylamino-ethoxy)-benzyl]-2-(4-hydroxy-phenyl)-3-methyl-1H-indol-5-ol]
IC50 (estrogen receptor; [1]): 200 nM

Cc1c(-c2ccc(O)cc2)n(Cc2ccc(OCCN(C(C)C)C(C)C)cc2)c2ccc(O)cc12 [Example No. 104, 1-[4-(2-Diisopropylamino-ethoxy)-benzyl]-2-(4-hydroxy-phenyl)-3-methyl-1H-indol-5-ol]
IC50 (estrogen receptor): 100 nM

Cc1c(-c2ccc(O)cc2)n(Cc2ccc(OCC[N+](C)(C)C)cc2)c2ccc(O)cc12 [Example No. 106, 2-(4-Hydroxy-phenyl)-3-methyl-1-[4-(2-dimethyl-1-yl-ethoxy)-benzyl]-1H-indol-5-ol methiodide]
IC50 (estrogen receptor; [2]): 100 nM

Cc1c(-c2ccc3c(c2)OCO3)n(Cc2ccc(OCCN3CCCCC3)cc2)c2ccc(O)cc12 [Example No. 119, 2-Benzo[1,3]dioxol-5-yl-3-methyl-1-[4-(2-piperidin-1-yl-ethoxy)-benzyl]-1H-indol-5-ol]
IC50 (estrogen receptor; [1]): 70 nM

Cc1c(-c2ccc(O)cc2)n(Cc2ccc(OCCN3CC4(C)CC3CC(C)(C)C4)cc2)c2ccc(O)cc12 (centres unmarked) [Example No. 115, 2-(4-Hydroxy-phenyl)-3-methyl-1-{4-[2-(1,3,3-trimethyl-6-aza-bicyclo[3.2.1]oct-6-yl)-ethoxy]-benzyl}-1H-indol-5-ol]
IC50 (estrogen receptor; [1]): 150 nM

Cc1c(-c2ccccc2)n(Cc2ccc(OCCN3CCCCC3)cc2)c2ccccc12 [Example No. 85, 4-{3-Methyl-1-[4-(2-piperidin-1-yl-ethoxy)-benzyl]-1H-indole}]
IC50 (estrogen receptor; [1]): 450 nM

Cc1c(-c2ccc(F)cc2)n(Cc2ccc(OCCN3CCCCC3)cc2)c2ccc(O)cc12 [Example No. 116, 2-(4-Fluoro-phenyl)-3-methyl-1-[4-(2-piperidine-1-yl-ethoxy)-benzyl]-1H-indol-5-ol]
IC50 (estrogen receptor; [1]): 40 nM

CCCCN(C)CCOc1ccc(Cn2c(-c3ccc(O)cc3)c(C)c3cc(O)ccc32)cc1 [Example No. 105]
IC50 (estrogen receptor; [2]): 28 nM

Cc1c(-c2ccc(O)cc2)n(Cc2ccc(OCCN3CCC(C)CC3)cc2)c2ccc(O)cc12 [Example No. 110, 2-(4-Hydroxy-phenyl)-3-methyl-1-{4-[2-(4-methyl-piperidin-1-yl)-ethoxy]-benzyl}-1H-indol-5-ol]
IC50 (estrogen receptor; [1]): 37 nM

C[C@]12CC[C@@H]3c4ccc(O)cc4CC[C@H]3[C@@H]1C[C@@H](O)[C@@H]2O [estriol]
EC50 (Ishikawa cells; Homo sapiens, Ishikawa): 0.13 nM

COc1ccc(-c2c(C)c3cc(OC)ccc3n2Cc2ccc(OCCN3CCCCC3)cc2)cc1 [Example No. 90, 5-Methoxy-2-(4-methoxy-phenyl)-3-methyl-1-{4-(2-piperidin-1-yl-ethoxy)-benzyl]-1H-indole]
IC50 (estrogen receptor; [1]): 600 nM

Cc1c(-c2ccc(F)cc2)n(Cc2ccc(OCCN3CCCCCC3)cc2)c2ccc(O)cc12 [Example No. 117, 1-[4-(2-Azepan-1-yl-ethoxy)-benzyl]-2-(4-fluoro-phenyl)-3-methyl-1H-indol-5-ol]
IC50 (estrogen receptor; [1]): 100 nM

COc1ccc(-c2c(C)c3cc(O)ccc3n2Cc2ccc(OCCN3CCCCC3)cc2)cc1 [Example No. 89, 2-(4-methoxy-phenyl)-3-methyl-1-{4-[2-(piperidin-1-yl)-ethoxy]-benzyl}-1H-indol-5-ol]
IC50 (estrogen receptor; [1]): 300 nM

Cc1c(-c2ccc(O)cc2)n(Cc2ccc(OCCN3CCC(O)CC3)cc2)c2ccc(O)cc12 [Example No. 113, 2-(4-Hydroxy-phenyl)-1-{4-[2-(4-hydroxy-piperidin-1-yl)-ethoxy]-benzyl}-3-methyl-1H-indol-5-ol]
IC50 (estrogen receptor; [1]): 47 nM

Cc1c(-c2ccc(O)cc2)n(Cc2ccc(OCCN3CCCCC3)cc2)c2ccc(F)cc12 [Example No. 94, 4-{5-Fluoro-3-methvl-1-[4-(2-piperidin-1-yl-ethoxy)-benzyl]-1H-indol-2-yl}-phenol]
IC50 (estrogen receptor; [1]): 200 nM
